Measured values from EP0199985A2, “Benzoic-acid derivatives, pharmaceutical preparations comprising them and process for preparing these compounds and pharmaceutical preparations” (Grünenthal GmbH, priority 1985, dated 1986).

Molecular target: T1, 5-Lipoxygenase (Rattus norvegicus, UniProt P12527)
T1 construct: basophile leukämische Leukozyten der Ratte in-vitro gezüchtet; endogenous in cells; whole cells suspended in phosphate buffer, stimulated with A 23187
T1 sequence (P12527 1-673): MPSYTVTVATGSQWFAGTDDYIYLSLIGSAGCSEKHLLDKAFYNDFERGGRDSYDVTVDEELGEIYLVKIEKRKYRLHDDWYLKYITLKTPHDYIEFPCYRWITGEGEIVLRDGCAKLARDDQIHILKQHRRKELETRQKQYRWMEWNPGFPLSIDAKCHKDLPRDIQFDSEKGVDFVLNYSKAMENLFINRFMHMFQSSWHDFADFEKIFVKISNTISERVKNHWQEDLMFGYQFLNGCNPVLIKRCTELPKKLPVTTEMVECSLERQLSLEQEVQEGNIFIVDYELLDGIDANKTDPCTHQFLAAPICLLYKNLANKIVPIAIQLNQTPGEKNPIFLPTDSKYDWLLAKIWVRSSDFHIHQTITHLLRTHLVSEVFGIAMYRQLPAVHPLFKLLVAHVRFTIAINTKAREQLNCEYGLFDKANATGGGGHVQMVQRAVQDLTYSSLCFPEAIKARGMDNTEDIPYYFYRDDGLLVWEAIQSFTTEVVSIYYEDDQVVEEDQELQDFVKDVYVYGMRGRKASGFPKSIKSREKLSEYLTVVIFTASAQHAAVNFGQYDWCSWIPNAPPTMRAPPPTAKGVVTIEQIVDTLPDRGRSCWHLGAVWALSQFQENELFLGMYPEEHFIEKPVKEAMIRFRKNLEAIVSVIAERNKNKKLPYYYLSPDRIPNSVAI
Assay: 5-lipoxygenase inhibition in cultured rat basophilic leukemic leukocytes (radiolabelled arachidonic acid, TLC of 5-HETE and LTB4)
Assay type: cell-based, Ratte
Conditions: rat basophilic leukemic leukocytes in 50 mM potassium phosphate buffer pH 7.4; indomethacin 10 µM, CaCl2 2 mM, labelled arachidonic acid + ionophore A 23 187, 5 min, room temperature; formation of 5-HETE and LTB4
Description: Zur Ermittlung der 5-Lipoxygenasehemmung wurden basophile leukämische Leukozyten der Ratte in-vitro gezüchtet und nach Erreichen einer Zelldichte von ca. 10^6 Zellen pro ml bei 400 g vom Nährmedium abzentrifugiert. Der Rückstand wurde in 50 mM Kaliumphosphatpuffer vom pH 7,4 so suspendiert, daß die Zellzahl […] Zellen pro ml betrug.
Jeweils 1 ml dieser Suspension wurde mit Indomethacin (10 uM) und Calciumchlorid (2 mM) versetzt und in An-oder Abwesenheit einer der Testsubstanzen mit radioaktiv markierter Arachi- 5 donsäure und dem Calcium-lonophor A 23 187 bei Raumtemperatur für 5 Minuten inkubiert. Nach Ansäuern auf pH 5 wurden die unter dem Einfluß der 5-Lipoxygenase gebildeten Arachidonsäuremetaboliten mit Ethylacetat extrahiert und 10 mit einem für die Leukotriene geeigneten Fließmittelgemisch dünnschichtchromatographisch getrennt [vgl. Jakschik et al. Biochem. Biophys. Res. Commun. 102, 624 (1981)]. Die Radioaktivitätsverteilung auf die verschiedenen Metaboliten 15 wurde mit Hilfe eines Dünnschichtscanners gemessen. Setzt man die prozentualen Bildungsanteile der 5-Lipoxygenaseprodukte (5-HETE und LTB4) zu der Menge bzw. Konzentration der eingesetzten Gesamtradioaktivität bzw. der Testsubstanz 20 der Formel I in Relation, so läßt sich der IC50-Wert-(d. h. die Konzentration, die eine 50 %-ige Hemmung der 5-Lipoxygenase bewirkt) ermitteln.

SMILES	IC50
CCCCCC(O)/C=C/C#CCC#CCC#Cc1cccc(C(=O)OC)c1 (stereo not drawn) [Beispiel 1, 3-(11'-Hydroxy-hexadec-9'E-en-1',4',7'-triin-1'-yl)-benzoesäuremethylester]	1700 nM
COC(=O)c1cccc(C#CCC#CCC#C/C=C/C(O)C2CCCCC2)c1 (stereo not drawn) [Beispiel 4, 3-(11'-Cyclohexyl-11'-hydroxy-undec-9'E-en-1',4',7-triin-1'-yl)-benzoesäuremethylester]	1400 nM
CCCCCC(O)/C=C/C=C\C/C=C\C/C=C\c1ccc(C(=O)OC)cc1 (stereo not drawn) [Beispiel 7, 4-(11'-Hydroxy-hexadeca-1'Z,4'Z,7'Z,9'E-tetraen-1'-yl)-benzoesäuremethylester]	1000 nM
CN(O)C(=O)c1ccc(C#CCCCCCCC#CCO)cc1 [Beispiel 11, 4-(11'-Hydroxy-undeca-1',9'-diin-1'-yl)-N-methylbenzhydroxamsäure]	200 nM
CN(O)C(=O)c1cccc(C#CCCCCCCC#CCO)c1 [Beispiel 16]	1000 nM
O=C(c1cccc(C#CCCCCCCC#CCO)c1)N1CCCCC1 [Beispiel 17, 3-(11 '-Hydroxy-undeca-1',9'-diin-1'-yl)-benzoesäurepiperidid]	2300 nM
CCOC(=O)c1cccc(C#CCCCCCCC#CCO)c1 [Beispiel 18, 3-(11 '-Hydroxy-undeca-1',9'-diin-1-yl)-benzoesäureethylester]	7500 nM
CN(O)C(=O)c1cccc(C#CCCCCCCC#CC(O)C2CCCCC2)c1 (stereo not drawn) [Beispiel 23biii, 3-(11'-Cyclohexyl-11'-hydroxy-undeca-1',9'-diin-1'-yl)-N-methylbenzhydroxamsäure]	500 nM
CCCN(CCC)C(=O)c1cccc(C#CCCCCCCC#CCO)c1 [Beispiel 24g, 3-(11'-Hydroxy-undeca-1',9'-diin-1'-yl)-benzoesäure-[N,N-di-(n-propyl)]-amid]	2400 nM
CC(=O)ON(C)C(=O)c1cccc(C#CCCCCCCC#CCO)c1 [Beispiel 24l, 3-(11'-Hydroxy-undeca-1',9'-diin-1'-yl)-benzoesäure-(N-methyl-N-acetoxy)-amid]	500 nM
CC(C)N(C(=O)c1cccc(C#CCCCCCCC#CCO)c1)C(C)C [Beispiel 24n, 3-(11'-Hydroxy-undeca-1',9'-diin-1'-yl)-benzoesäure-[N,N-di-(isopropyl)]-amid]	1600 nM
CCCCCNC(=O)c1cccc(C#CCCCCCCC#CCOC(C)=O)c1 [Beispiel 27a, 3-(11 '-Acetoxy-undeca-1',9'-diin-1'-yl)-benzoesäure-n-pentylamid]	7000 nM
